According to patent publication US11872236B2, “Pharmacological agents for treating ocular diseases” (CALASIA PHARMACEUTICALS, INC., priority 2018, dated 2024):
In brackets after ≈: the same amount, converted by molar mass. Read-outs that look alike come from different tables or passages of the source.

What was measured:
[1] = test system: SRA 01/04 HLE cells; test: Cell-based UV protection, viability by Alamar blue; parameters: species or system human; settings: Table 5;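 also: cells pretreated with compound at a range of concentrations before UV irradiation, viability read 24 h after exposure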
[2] = Solubility with FDA approved excipients; assay type: physicochemical
Procedure: Solubility: The solubility of CAP1160 and CAP4196 was tested with different FDA approved excipients such as cyclodextrin, PEG-b-PCL, Kolliphor-EL, Kolliphor-40, sorbitol, propelyne gycol, sodium phosphate, etc. […] This makes the formulation safe for topical use (see Table 6).

[3] = test system: human lens epithelial (HLE) cells; test: Cell-based heat protection, viability by Alamar blue; parameters: Cell Heat % protection: concentration or dose not given beside the values; settings: for Cell-based [Heat] (max % net protection): Table 5
Procedure: Alamar blue was used for assessing viability. Mean±SEM of the measurements are shown.
Cell-based using assays using human lens epithelial cell lines SRA 01/04 and B3 were also performed. The cells were exposed to UV or heat and cell viability assessed 24 hours post-exposure by Alamar blue staining. In another experiment, SRA 01/04 cells were pre-incubated with varying concentrations of compounds two hours prior to UV exposure. Relative protection was measured as percent viability compared to vehicle control 24 hours following UV exposure. Mean±SEM of the measurements are shown.

[4] = target: T1, alpha-A crystalline (Homo sapiens, UniProt P02489); test: Ca+2 and UVC induced aggregation of alpha-A crystalline (absorbance screen); assay type: biochemical; settings: for inhibition at 200 µM: Ca+2 and UVC induced aggregation of alpha-A crystalline, read-out: Percent protection (at 200 μM); for EC50: preventing Ca+2 and UVC induced aggregation of alpha-A crystalline;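 as to all read-outs here: recombinant human alpha-A crystallin (500 µg/ml) preincubated 30 min with compound, then UV-induced aggregation tracked by absorbance at time points from 0 to 120 min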
T1 sequence (P02489 1-173): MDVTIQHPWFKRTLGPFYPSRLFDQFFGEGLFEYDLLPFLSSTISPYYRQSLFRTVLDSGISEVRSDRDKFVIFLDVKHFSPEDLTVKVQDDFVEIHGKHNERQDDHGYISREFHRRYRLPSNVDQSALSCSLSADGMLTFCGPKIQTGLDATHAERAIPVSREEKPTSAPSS

[5] = target: TTR (Homo sapiens, UniProt P02766); settings: Sant'Anna, R. et al. (2016); cited from earlier work
[6] = test system: porcine eye lens; test: Ex vivo eye lens exposed to UVC radiation, cataract scoring; settings: Table 8; printed as a percentage
Procedure: The top row of the figure corresponds to lenses that were not exposed to UVC but contained same percent of DMSO as those that were exposed to UVC. The lenses were monitored and imaged for three days following the exposure to UVC. No drug was added to the lenses post UVC exposure.

[7] = test system: New Zealand white rabbits; test: Ocular safety / MTD, repeated dose for 7 days; assay type: in vivo; settings: for Mortality and Morbidity: 50 μL × 4 times a day in each eye, male
Procedure: Prodrug CAP4196 is well-tolerated up to 10% concentration in New Zealand white rabbits. Initial maximum tolerated dose studies (MTD) help identify observable signs of toxicity and provide a rationale for setting dose levels in later definitive studies. Therefore, the MTD of CAP4196 was evaluated in New Zealand white rabbits. Four animals per group were dosed with increasing concentrations (0.25, 2.5, 8 and 10%) of CAP4196 at 50 μl volume q.i.d. dosing at 2 hrs interval. Following the dosing, the animals were evaluated for mortality and morbidity, ophthalmological examination, body weight, and clinical pathology before start of dosing then on dosing days 2, 4, and 6 prior to first dose instillation and on day 7, one hour after last dose instillation.

Structure (SMILES) | Cell-based [UV] (max % net protection) [1] | Cell-based [Heat] (max % net protection) [3] | further results
Cc1ccc(C(=O)c2cc(O)c(O)c([N+](=O)[O-])c2)cc1 [CAP1160, Tolcapone] | 68% | 23% | With Kolliphor 40 (1:1) In water [2]: 1; With PEG-b-PCL (1:1) mg/ml in water [2]: 1 mg/mL; improvement in solubility [2]: 10 fold; solubility ([2]; aqueous with cosolvent or surfactant or cyclodextrin, Solubility in water with (2-hydroxypropyl)-beta cyclodextrin mg/ml (1:1)): 2 mg/mL (≈ 7.32 mM); solubility ([2]; aqueous with cosolvent or surfactant or cyclodextrin, solubility): 1.5 mg/mL (≈ 5.49 mM); solubility ([2]; water, Solubility in water mg/ml): 0.1 mg/mL (≈ 0.366 mM); inhibition at 200 µM [4]: 65%; EC50 [4]: 63.5 µM; TTR aggregation inhibition [5]: potent TTR aggregation inhibitor
O=C(c1ccccc1)c1ccc(O)c(O)c1 [CAP1347] | 28% | 8% | inhibition at 200 µM [4]: 13%; EC50 [4]: 115 µM
O=C(c1cc(O)c(O)c([N+](=O)[O-])c1)c1ccccc1F [CAP3089] | 31% | 0% | inhibition at 200 µM [4]: 56%; EC50 [4]: 362 µM
Nc1ccc(C(=O)c2ccccc2)cc1N [CAP4129] | 37% | 0% | 
COc1ccc(C(=O)c2ccccc2)cc1 [CAP4130] | 55% | 42% | 
COc1ccc(C(=O)c2ccccc2)cc1OC [CAP4132] | 39% | 0% | 
O=C(c1ccccc1)c1ccc(O)c(O)c1O [CAP4133] | 22% | 18% | 
COc1cc(O)c(C(=O)c2ccccc2)cc1S(=O)(=O)[O-].[Na+] [CAP4135] | 75% | 4% | 
COc1cc(O)c(C(=O)c2cc(S(=O)(=O)[O-])c(OC)cc2O)cc1S(=O)(=O)[O-].[Na+].[Na+] [CAP4136] | 70% | 5% | 
Cc1ccc(C(=O)c2ccccc2)c(N)c1 [CAP4152] | 17% | 0% | 
O=C(O)c1ccc(C(=O)c2ccc(C(=O)O)cc2)cc1 [CAP4160] | 82% | 0% | 
O=C(c1cccc(F)c1)c1cccc(F)c1 [CAP4161] | 38% | 8% | 
COc1cc(O)c(C(=O)c2ccccc2)cc1S(=O)(=O)O [CAP4162] | 60% | 3% | 
O=C(O)c1ccc(C(=O)c2ccccc2)cc1 [CAP4172] | 67% | 9% | 
O=C(O)c1ccc(C(=O)c2ccccc2C(=O)O)cc1 [CAP4173] | 61% | 0% | 
CNc1ccc2c(O)cc(S(=O)(=O)O)cc2c1 [CAP4184] |  |  | Ex-vivo [6]: 15%; Cell Heat % protection ([3]; Table 8): 4%
Cc1ccc(C(=O)c2cc(OP(=O)([O-])[O-])c(O)c([N+](=O)[O-])c2)cc1.[Na+].[Na+] [CAP4196, Sodium 2-hydroxy-5-(4-methylbenzoyl)-3-nitrophenyl phosphate] | 63% | 38% | pH of the formulation ([2]; 100 mg/ml, only water as solvent): 6.65; solubility ([2]; aqueous with cosolvent or surfactant or cyclodextrin, water with (2-hydroxypropyl)-beta cyclodextrin (1:1), read-out: Solubility in water with (2-hydroxypropyl)-beta cyclodextrin mg/ml (1:1)): 100 mg/mL; solubility ([2]; pH 6.65, only water as solvent, read-out: solubility): 100 mg/mL; improvement in solubility ([2]; phosphate prodrug, only water as solvent): greater than 660 fold; solubility ([2]; water, read-out: Solubility in water): 100 mg/mL; local reactions ([7]; 10% w/v, 50 μL, 4 times a day): only few temporary local reactions like excessive rubbing of eyes and redness; systemic toxicity ([7]; 10% w/v, 50 μL, 4 times a day): did not produced any systemic toxicity; MTD (highest dose concentration) ([7]; 50 μL, 4 times a day, 2 hours interval, 7 days): 10%; Mortality and Morbidity ([7]; ophthalmic formulation 0.25% w/v): 0; Mortality and Morbidity ([7]; ophthalmic formulation 4% w/v): 0; Mortality and Morbidity ([7]; ophthalmic formulation 8% w/v): 0; Mortality and Morbidity ([7]; ophthalmic formulation 10% w/v): 0; well-tolerated concentration ([7]; topical ocular, repeated dose 7 days): up to 10%
O=C(c1cccc([N+](=O)[O-])c1)c1ccc2c(c1)C(=O)OC2=O [CAP4265] | 129% | 17% | 
O=C(c1ccccc1)c1ccccc1S(=O)(=O)c1ccccc1 [CAP4279] | 5% | 0% | 
NC(=O)Cc1cccc(C(=O)c2ccccc2)c1N [CAP4281] | 38% | 8% | 
